Data published in patent publication US20210038545A1 (priority 2018, published 2021).

System: S. pneumoniae
Conditions: mice colonized with IAV (H1N1, 7 dpi) microbiota; acetate five days before 1×10^6 CFUs; vs vehicle-treated transplanted animals; FIG. 4A

## CC(=O)O [acetate]
  resistance to S. pneumoniae challenge: more resistant
